Read-outs that look alike come from different tables or passages of the source. Peptide text beside a SMILES is read from it.
What was measured:
[1] = system: anti-β1EC2-induced heart failure (β1EC2/GST-FP-immunised rats); test: Echocardiography and catheterisation, cardiomyopathic phenotype, therapy-study; format: in vivo, Lewis/CrlBR rats; conditions: echocardiography and catheterisation (Fig. 2G, H; S2 Fig.)
Description: (§1) In brief, n = 76 two months old Lewis/CrlBR rats were either s.c. immunised with 50 μg β1EC2/GST-FP, or n = 38 rats were control-injected with 0.9% NaCl (t = 0). To maintain high anti-β1EC2-titers, all immunised rats were boosted with β1EC2/GST-FP (or 0.9% NaCl) every month over 20 months as previously described. Application of the different linear or cyclic β1-AR peptides (corresponding to the primary AA-sequence of either the first (β1EC1) or the 2nd extra-cellular β1-AR loop (β1EC2)) or the β1-receptor blocker bisoprolol was initiated either 6 weeks after the 1st immunisation (i.e. 15 days after the 1st boost, prevention-study), or 8.5 months after the 1st immunisation (therapy-study).
In brief, the rats were lightly anaestetised (30 mg/kg ketamine-HCl and 5 mg/kg xylazine i.p.), shaved (chest), and placed supine on a special table. M-mode tracings were recorded at baseline (before immunisation), and subsequently every four months in the parasternal long and short axis views according to the guidelines of the American Society for Echocardiography. Pulsed-wave Doppler spectra were recorded from the apical five-chamber view and the velocity-time integral (VTI) of the transaortic flow served to calculate cardiac output (CO [ml/min] = Aortic VTI x (π [LV-outflow tract diameter/2]^2) x bpm).

[2] = Plasma half-life in vivo of 123I-(tyrosine)-labeled peptides; conditions: 123I-(tyrosine)-labeled peptide, 1.4 to 1.8 MBq/animal injected; central venous blood samples gamma-counted 2, 4, 6, 8, 10, 20, 30, 60 min after injection; difference n.s.
[3] = system: anti-β1EC2-antibodies; test: Free anti-β1EC2-titers by ELISA, therapy-study; format: in vivo, Lewis/CrlBR rats; conditions: for decline in anti-β1EC2-titers: 1.0 mg/kg i.v. every 4 weeks, irrespective of bisoprolol co-treatment (Fig. 2F)
Description: as §1
(TIF) Click here for additional data file.

[4] = system: anti-β1EC2-induced heart failure (β1EC2/GST-FP-immunised rats); test: Left heart catheterisation (haemodynamics), therapy-study; format: in vivo, Lewis/CrlBR rats; conditions: LV catheterisation month 20, mean ±SEM
Description: as §1

[5] = system: cardiac β1-ARs; test: Radioligand binding of cardiac membranes (125I-CYP); format: in vivo, Lewis/CrlBR rats; conditions: 125I-cyanopindolol binding to cardiac membranes, CGP20712A competition (Fig. 4A and B)
Description: Membranes from apical cardiac tissues from rats of each study-group were prepared as previously described. To determine total β-AR density (Bmax), 35μg membrane protein were incubated (1.5 h, 25°C) in binding buffer with 200pM of the non-selective β-AR antagonist ^125I-cyanopindolol (^125I-CYP; Perkin Elmer Life and Analytical Sciences, Billerica, MA). Non-specific binding was determined with 5μM unlabeled L-propranolol. The proportion of β1- and β2-AR subtypes was estimated from biphasic competition-curves with 10^-10 to 10^-2 M of the unlabeled β1-selective antagonist CGP20712A (Sigma). The reaction was stopped by rapid filtration (Whatman GF/C filters) and washing with ice-cold buffer. Filter-bound radioactivity was measured by γ-counting. Estimates of maximal binding (Bmax) and the proportion of β1- and β2-AR-subtypes were calculated with GraphPad Prism 5.00 (San Diego, CA).
Fig 4 Cardiac adrenergic system and molecular markers. […] Columns ± error bars represent the level of expression of the indicated markers ±SEM in cardiac tissues from the indicated treatment-groups compared to values from 0.9% NaCl-injected rats (controls, set at 100%), as determined by qRT-PCR normalised to GAPDH (one way ANOVA and Dunnett`s post-hoc test; *p<0.05; **p<0.001).

[6] = system: anti-β1EC2-induced heart failure (β1EC2/GST-FP-immunised rats); conditions: therapy-study, end of study, mean ±SEM
Description: as §1
From paraffin-embedded heart preparations cavity- and wall-dimensions were determined by computer-aided analysis of H&E-stained mid-ventricular 2μm-sections as previously described. H&E-stained paraffin-sections also served to quantify damaged and fibrotic cardiac areas (scars). For detection of mast cells, deparaffinised cardiac sections were stained with acidified (pH<2.5) toluidine blue 0.1% (Sigma). The number of toluidine-positive cells was normalized to square millimeter of cardiac tissue. TUNEL-positive cells were quantified in 2μm mid-ventricular paraffin-sections using a TMR Red in Situ Death Detection Kit (Roche, Basel, Switzerland). Only the total number of TUNEL-postive cells/section was determined without further differentiation of the specific apoptotic cell type (e.g., fibroblasts, endothelial cells, cardiomyocytes).

[7] = system: anti-β1EC2-induced heart failure (β1EC2/GST-FP-immunised rats); test: Relative organ wet weights and body weight, therapy-study; conditions: month 20, mean ±SEM
Description: as §1
After the hearts all other relevant inner organs (e.g., lung, liver, spleen, kidneys, brain, and eyes) were removed, rinsed with ice-cold PBS, weighed, sectioned, and fixed for further histologic analysis.

[8] = immunised anti-β1EC2-positive rats, from 8.5 months after 1st immunisation peptides 1.0 mg/kg i.v. every 4 weeks, bisoprolol 15 mg/kg/day orally, over 12 months
[9] = non-immunised 0.9% NaCl-injected rats, EC2-CP 1.0 mg/kg i.v. every 4 weeks or bisoprolol 15 mg/kg/day orally over 12 months

CC(C)[C@@H]1NC(=O)[C@H](Cc2ccccc2)NC(=O)[C@H](CC(=O)O)NC(=O)[C@H](CS)NC(=O)[C@H](CS)NC(=O)[C@H](CCCCN)NC(=O)[C@@H]2CCCN2C(=O)[C@H](CC(=O)O)NC(=O)[C@H](CC(N)=O)NC(=O)[C@H](Cc2ccc(O)cc2)NC(=O)[C@H](CS)NC(=O)[C@H](CCCNC(=N)N)NC(=O)[C@H](CCCNC(=N)N)NC(=O)[C@H](C)NC(=O)[C@H](CCC(=O)O)NC(=O)[C@H](CC(=O)O)NC(=O)[C@H](CO)NC(=O)[C@H](CCC(=O)O)NC(=O)[C@H](C)NC(=O)[C@H](CCCNC(=N)N)NC(=O)[C@H](C)NC(=O)[C@H](CCC(N)=O)NC(=O)CNC(=O)[C@H](CCCNC(=N)N)NC(=O)[C@H](CC(N)=O)NC(=O)[C@H]([C@@H](C)O)NC1=O [β1EC2-CP] (cyclo(AESDEARRCYNDPKCCDFVTNRGQAR))
cardiomyopathic phenotype, in words [1]: almost fully reversed
plasma-half life in vivo (t ½) [2]: 8.1 ± 2.8 min
decline in anti-β1EC2-titers ([3]; after 4–5 injections): > 90%
decline in anti-β1EC2-titers ([3]; after two injections): > 70%
steady state antibody-levels in % of the titers at initiation of therapy ([3]; despite monthly antigen-boosts): less than 15%
-dP/dt (relaxation) [4, 8]: 5228 ±166 mmHg/s
HF (heart frequence) [4, 8]: 217 ±3 bpm
LVEDP (LV end-diastolic pressure) [4, 8]: 10.0 ± 1.0 mmHg
LVSP (maximal systolic LV-pressure) [4, 8]: 126 ±4 mmHg
-dP/dt (relaxation) [4, 9]: 5502 ±248 mmHg/s
HF (heart frequence) [4, 9]: 221 ±7 bpm
LVEDP (LV end-diastolic pressure) [4, 9]: 9.2 ± 1.1 mmHg
LVSP (maximal systolic LV-pressure) [4, 9]: 121 ±8 mmHg
cardiac β1-AR density (downregulation), in words [5]: largely prevented
IVS (thickness of the inter-ventricular septum) [6, 8]: 1.7 ±0.1 mm
LVA (total LV-area) [6, 8]: 65.2 ±2.5 mm2
LVCA (LV-cavity area) [6, 8]: 25.6 ±1.0 mm2
LVWA (LV wall area) [6, 8]: 39.6 ±1.7 mm2
PW (posterior wall thickness) [6, 8]: 1.8 ±0.1 mm
IVS (thickness of the inter-ventricular septum) [6, 9]: 1.7 ±0.1 mm
LVA (total LV-area) [6, 9]: 57.4 ±0.7 mm2
LVCA (LV-cavity area) [6, 9]: 21.3 ±0.1 mm2
LVWA (LV wall area) [6, 9]: 36.1 ±0.7 mm2
PW (posterior wall thickness) [6, 9]: 1.9 ±0.1 mm
Heart, relative (wet) weight [7, 8]: 2.20 ± 0.09 mg/g
Kidney L, relative (wet) weight [7, 8]: 2.29 ± 0.06 mg/g
Kidney R, relative (wet) weight [7, 8]: 2.25 ± 0.05 mg/g
Liver, relative (wet) weight [7, 8]: 19.83 ± 0.50 mg/g
Lung, relative (wet) weight [7, 8]: 2.26 ± 0.16 mg/g
Spleen, relative (wet) weight [7, 8]: 1.23 ± 0.04 mg/g
Weight (body weight) [7, 8]: 673 ± 12 g
Heart, relative (wet) weight [7, 9]: 2.15 ± 0.08 mg/g
Kidney L, relative (wet) weight [7, 9]: 2.19 ± 0.08 mg/g
Kidney R, relative (wet) weight [7, 9]: 2.22 ± 0.08 mg/g
Liver, relative (wet) weight [7, 9]: 18.9 ± 0.55 mg/g
Lung, relative (wet) weight [7, 9]: 2.08 ± 0.07 mg/g
Spleen, relative (wet) weight [7, 9]: 1.18 ± 0.03 mg/g
Weight (body weight) [7, 9]: 695 ± 27 g

Reference: paper PMC4336331, “Novel Receptor-Derived Cyclopeptides to Treat Heart Failure Caused by Anti-β1-Adrenoceptor Antibodies in a Human-Analogous Rat Model” (PLoS ONE, 2015)
